A short description of assay [1]: estrogenic effectiveness in vivo. As to conditions: applied orally in vivo.
Assay [2] has as its target T1, steroid sulfatase (Homo sapiens, UniProt P08842).
T1 sequence (P08842 22-583): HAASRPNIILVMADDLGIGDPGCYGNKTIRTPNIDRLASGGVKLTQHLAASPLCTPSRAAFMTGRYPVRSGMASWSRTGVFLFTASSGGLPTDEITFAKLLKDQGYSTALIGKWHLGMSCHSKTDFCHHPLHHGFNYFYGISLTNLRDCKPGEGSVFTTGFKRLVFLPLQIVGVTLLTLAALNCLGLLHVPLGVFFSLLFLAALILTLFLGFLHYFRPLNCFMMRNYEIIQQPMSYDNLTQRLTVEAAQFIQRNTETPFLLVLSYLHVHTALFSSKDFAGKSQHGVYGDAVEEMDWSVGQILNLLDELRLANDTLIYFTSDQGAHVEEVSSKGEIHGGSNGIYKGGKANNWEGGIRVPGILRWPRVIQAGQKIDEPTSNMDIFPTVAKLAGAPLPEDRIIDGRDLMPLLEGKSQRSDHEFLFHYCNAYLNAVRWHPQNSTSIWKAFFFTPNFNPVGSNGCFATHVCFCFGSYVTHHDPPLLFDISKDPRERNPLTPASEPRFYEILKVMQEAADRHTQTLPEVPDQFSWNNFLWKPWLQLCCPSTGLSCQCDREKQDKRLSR
As to conditions: found by M. J. Reed et al.; cited from earlier work.

`C[C@]12CC[C@@H]3c4ccc(OS(N)(=O)=O)cc4CC[C@H]3[C@@H]1C[C@@H](Br)[C@@H]2O` [16α-bromoestradiol-3-sulfamate, 16α-Bromo-3-sulfamoyloxy-13β-methyl-1,3,5(10)-gonatrien-17β-ol]: in assay [1] (relative to estradiol-3-sulfamate), the “estrogenic effectiveness compared with estradiol-3-sulfamate” value was “three times more effective”. For the same compound, the “estrogenic effectiveness compared with estriol” value in assay [1] (relative to estriol) is listed as “five times more effective”. With `C[C@]12CC[C@@H]3c4ccc(OS(N)(=O)=O)cc4CC[C@H]3[C@@H]1CC[C@@H]2O` [estradiol-3-sulfamate], in assay [2], the sulfatase-inhibiting activity result was “strong sulfatase-inhibiting activity”. As for `C[C@]12CC[C@@H]3c4ccc(OS(N)(=O)=O)cc4CC[C@H]3[C@@H]1CCC2=O` [estrone-3-sulfamate], the sulfatase-inhibiting activity entry in assay [2] is “strong sulfatase-inhibiting activity”.

The values above are taken from US6339079B1, “Steroid sulfamates, method for the production and use thereof” (id pharma GmbH, priority 1997, dated 2002).
